In patent publication US5652234A, “3-(7-oxo-1-aza-4-oxabicyclo[3.2.0]hept-3-yl)alanine derivative as antitumor agent” (Taiho Pharmaceutical Co., Limited, priority 1994, dated 1997):

Columns and labels:
L1210 cells = assay: cells; assay type: cell-based; conditions: Mus musculus, L1210, 72 h, read-out: Cytotoxicity TD50 L-1210
Protocol: Vitro L1210 Cell Cytoxocity Assay
In vitro :L1210 cell cytotoxicity assay was done by the method of microculture tetrazolium assay (Alley et al., Cancer Research, 48, 589-601 (1988).
L1210 cells were cultivated in RPMI 1640 medium supplemented with 10% fetal calf serum and […] of 2-mercaptoethanol at 37° C. in humidified 5% CO2 atmosphere no prepare a cell stock. Cells were counted using neubauer hemocytometer and seed in 96 well plates at 100 μl of 0.5×10^4 cells per ml. The test compounds were diluted and 100 μl of the solution was added in triplicate wells to give the final concentration of 10, 5, 1, 0.5, 0.1, 0.05 and 0.01 μg/ml. Control wells were identical except :hat the test compound was absent. These were cultured for three days. Results were assayed using the microculture tetrazolium assay briefly. 50 μl of MTT formazoan working solution (1:5 v/v in culture medium) was added to each well and cultures were incubated at 37° C. for 4 hrs. Culture plates were centrifuged at low speed for 5 minutes. All but 10-20 μl of culture medium supernatant was removed by slow aspiration and […] and read at OD540 on a multiscan spectrophotometer. Inhibition value of cell growth was calculated based on optical density using the following equation; [formula] TD50 values were calculated from linear depression ines of the log-logit plot.

KB cells = assay: cells; assay type: cell-based; conditions: Homo sapiens, 72 h, read-out: Cytotoxicity TD50 KB
Protocol: In vitro KB cell cytoxocity assay was done by modification of the crystal violet assay (Grillis et al., Anal Biochem., 159, 109-113 (1986).
KB cells were cultivated in Eagles minimum essential medium supplemented with 10% calf serum and incubated at 37° C. in a humidified 5% CO2 atmosphere to prepare a cell stock. Cells were counted using a neubauer hemocytometer and seeded in 96 well plates at 100 μl of 3×10^4 cells/ml and cultured for one day. Test compounds were diluted and 100 .parallel.l of the solution was added in triplicate wells to give final concentration of 10, 5, 1, 0.5, 0.1, 0.05 and 0.01 μg/ml. Control wells were identical except that test compound was absent. These were cultured for three days. Then the cells were fixed with addition of 20 μl of 25% glutaraldehyde for 15 minutes, washed with water and dried. Then stained with 100 μl of 0.05% crystal violet for 15minutes, washed with water and dried. The wells are eluted with 100 μl of 0.05M NaH2 PO4 /ethanol (1:1 v/v) and read at OD540 on a multiscan spectrophotometer. Inhibition value of cell Growth was calculated based on optical density using the following equation; [formula] TD50 values were calculated from linear recression ines of the log-logit plot.

Sarcoma 180 = assay: In Vivo Antitumor Activity Against Sarcoma 180; parameters: species or system male ICR mice; conditions: s.c. - i.p., days 1, 5 and 9, tumor weight on day 12
Protocol: The compounds of general formula (I) were tested in vivo against Sarcoma 180 xenografted tumor to mice as illustrated herein after.
Sarcoma 180, 5×10^6 cells were inoculated by S.C. to male ICR mice (6 weeks old) on day 0. Drugs were administered on days 1,5 and 9. Mice were killed and tumor weight was measured on day 12 after transplantation. The percentage inhibition of tumor growth was calculated from the mean tumor weight of the treated group compared with that of the control group. Number of mice used in each group was between 6 to 10.

β-lactamase = conditions: natural metabolites isolated from Streptomyces culture; cited from earlier work
[1] = isolation to be done in the dark at low temperatures; cited from earlier work

O=C(N[C@@H](C[C@@H]1CN2C(=O)C[C@@H]2O1)C(=O)OC(c1ccccc1)c1ccccc1)OCc1ccccc1 (mixture of isomers) [10A, N-Benzyloxycarbonyl-3-[(3RS,5SR)-7-oxo-1-aza-4-oxabicyclo [3.2.0]hept-3-yl]-L-alanine diphenylmethyl ester]
IC50 (L1210 cells): 10 µg/mL
IC50 (KB cells): 3.17 µg/mL

O=C(N[C@H](C[C@@H]1CN2C(=O)C[C@@H]2O1)C(=O)OC(c1ccccc1)c1ccccc1)OCc1ccccc1 (mixture of isomers) [10B, N-(benzyloxycarbonyl)-3-[(3RS,5SR)-7-oxo-1-aza-4-oxabicyclo[3.2.0]hept-3-yl]-D-alanine diphenylmethyl ester]
IC50 (L1210 cells): 7.5 µg/mL
IC50 (KB cells): 1.78 µg/mL

N[C@@H](C[C@@H]1CN2C(=O)C[C@@H]2O1)C(=O)O (mixture of isomers) [compound 11, 3-[(3RS,5SR)-7-oxo-1-aza-4-oxabicyclo[3,2,0]hept-3-yl]-L-alanine]
IC50 (L1210 cells): 0.1 µg/mL
IC50 (KB cells): 0.023 µg/mL
% Inhibition in 12 days (tumor growth, tumor weight) (Sarcoma 180; 1.56 mg/kg/day): 71.4%
% Inhibition in 12 days (tumor growth, tumor weight) (Sarcoma 180; 3.13 mg/kg/day): 79.5%

N[C@H](C[C@@H]1CN2C(=O)C[C@@H]2O1)C(=O)O (mixture of isomers) [compound 12, 3-[(3RS,5SR)-7-oxo-1-aza-4-oxabicyclo[3.2.0]hept-3-yl]-D-alanine]
IC50 (KB cells): 0.098 µg/mL

CC(C)C(N)C(=O)NC(C(=O)O)C(O)C1CN2C(=O)CC2O1 (centres unmarked) [G0069A]
β-lactamase inhibitory properties (β-lactamase): None of the above metabolites exhibited β-lactamase inhibitory properties
chemical stability [1]: chemicalyl unstable
